Source: patent US20130281362A1, “ANTIVIRAL AGENT” (priority 2011, published 2013)

Tested on: influenza A virus strain A/Aichi/02/68 (H3N2)
Design: species or system non-inbred male white mice
Conditions: mouse, in vivo, 60 mg/kg

## CCOC(=O)c1c(CSc2ccccc2)n(C)c2cc(Br)c(O)c(CN(C)C)c12 [Arbidol 970609]
  Death rate: 10/15
  Increase in MST: 2.6 days
  MST: 9.3 days
  Protection against death (%): 33.3%
